Activity calls are given as the source filed them.
Columns and labels:
Type in all cases: functional
[1] = target: T1, Tyrosine-protein phosphatase non-receptor type 7 (Homo sapiens, UniProt P35236); assay: Dose Response confirmation of compounds that inhibit HePTP. [Related pubchem assays (depositor defined):AID1059, AID1661, AID2085]
T1 sequence (P35236 whole entry): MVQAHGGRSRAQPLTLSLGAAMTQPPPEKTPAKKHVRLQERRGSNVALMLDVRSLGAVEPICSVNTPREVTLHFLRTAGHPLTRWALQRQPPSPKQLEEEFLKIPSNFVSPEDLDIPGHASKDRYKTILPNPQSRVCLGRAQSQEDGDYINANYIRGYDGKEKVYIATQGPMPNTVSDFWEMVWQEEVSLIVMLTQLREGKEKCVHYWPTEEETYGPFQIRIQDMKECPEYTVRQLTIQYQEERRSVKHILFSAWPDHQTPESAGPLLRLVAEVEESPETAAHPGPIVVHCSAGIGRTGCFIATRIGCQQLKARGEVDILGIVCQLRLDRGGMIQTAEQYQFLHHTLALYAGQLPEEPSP

[2] = target: Dual specificity protein phosphatase 3 (Homo sapiens, UniProt P51452); assay: Dose Response Confirmation of compounds that inhibit VHR1 in Fluorescent Assay. [Related pubchem assays (depositor defined):AID1661, AID1878]
[3] = target: 26S proteasome non-ATPase regulatory subunit 14 (Homo sapiens, UniProt O00487); assay: inhibition of proteasome subunit RPN11 – biochemical, fluorescence polarization, uHTS hits, confirmation (AID 602368)
[4] = target: 72 kDa type IV collagenase (Homo sapiens, UniProt P08253); assay: Dose Response validation of uHTS RPN11 inhibitor hits using a MMP-2 Fluorescence assay.
Prothrombin = Prothrombin (Bos taurus, UniProt P00735); assay: thrombin protease inhibitors – biochemical, fluorescence polarization, uHTS hits, dose response (AID 602369)
Coagulation factor XII [5] = target: T2, Coagulation factor XII (Homo sapiens, UniProt P00748); assay: activated coagulation factor XII inhibitor potency, concentration-effect curve, cell-free (AID 716)
T2 sequence (P00748 whole entry): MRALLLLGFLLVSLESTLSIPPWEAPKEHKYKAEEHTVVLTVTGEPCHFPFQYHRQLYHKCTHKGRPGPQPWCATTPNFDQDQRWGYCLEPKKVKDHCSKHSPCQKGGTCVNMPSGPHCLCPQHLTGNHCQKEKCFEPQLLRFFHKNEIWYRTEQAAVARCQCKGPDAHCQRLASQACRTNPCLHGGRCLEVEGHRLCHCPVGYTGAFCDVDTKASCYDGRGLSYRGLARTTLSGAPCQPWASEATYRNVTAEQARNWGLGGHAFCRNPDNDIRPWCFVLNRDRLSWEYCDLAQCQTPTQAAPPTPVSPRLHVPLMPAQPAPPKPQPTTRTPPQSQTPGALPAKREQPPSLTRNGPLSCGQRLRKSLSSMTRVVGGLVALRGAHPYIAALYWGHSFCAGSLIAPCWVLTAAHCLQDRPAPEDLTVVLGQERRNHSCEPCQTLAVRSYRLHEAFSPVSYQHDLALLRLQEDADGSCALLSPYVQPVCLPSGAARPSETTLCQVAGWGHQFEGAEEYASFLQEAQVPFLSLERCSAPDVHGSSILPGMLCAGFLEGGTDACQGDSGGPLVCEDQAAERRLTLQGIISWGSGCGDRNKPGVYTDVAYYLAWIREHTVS

[6] = target: T1, Tyrosine-protein phosphatase non-receptor type 7; assay: redox-active compounds inhibiting HePTP phosphatase – biochemical, fluorescence, mechanism study (AID 2068)
Coagulation factor XII [7] = target: T2, Coagulation factor XII; assay: Factor XIIa Dose Response Confirmation from Single Well HTS. [Related pubchem assays (depositor defined):AID701]

26S proteasome non-ATPase regulatory subunit 14, sequence (O00487 whole entry): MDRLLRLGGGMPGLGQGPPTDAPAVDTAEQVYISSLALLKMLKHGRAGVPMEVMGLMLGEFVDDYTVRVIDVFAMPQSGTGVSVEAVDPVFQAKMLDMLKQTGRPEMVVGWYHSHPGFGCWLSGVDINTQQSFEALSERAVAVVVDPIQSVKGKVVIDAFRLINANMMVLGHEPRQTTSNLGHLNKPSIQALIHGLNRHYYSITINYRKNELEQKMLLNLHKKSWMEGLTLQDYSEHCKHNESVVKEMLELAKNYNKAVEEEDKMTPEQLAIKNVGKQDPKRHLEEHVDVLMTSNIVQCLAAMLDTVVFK
Dual specificity protein phosphatase 3, sequence (P51452 whole entry): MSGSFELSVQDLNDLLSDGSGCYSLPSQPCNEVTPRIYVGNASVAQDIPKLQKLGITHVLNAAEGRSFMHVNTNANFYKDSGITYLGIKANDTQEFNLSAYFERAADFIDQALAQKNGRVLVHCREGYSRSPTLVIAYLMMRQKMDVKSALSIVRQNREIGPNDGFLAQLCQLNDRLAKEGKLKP
72 kDa type IV collagenase, sequence (P08253 whole entry): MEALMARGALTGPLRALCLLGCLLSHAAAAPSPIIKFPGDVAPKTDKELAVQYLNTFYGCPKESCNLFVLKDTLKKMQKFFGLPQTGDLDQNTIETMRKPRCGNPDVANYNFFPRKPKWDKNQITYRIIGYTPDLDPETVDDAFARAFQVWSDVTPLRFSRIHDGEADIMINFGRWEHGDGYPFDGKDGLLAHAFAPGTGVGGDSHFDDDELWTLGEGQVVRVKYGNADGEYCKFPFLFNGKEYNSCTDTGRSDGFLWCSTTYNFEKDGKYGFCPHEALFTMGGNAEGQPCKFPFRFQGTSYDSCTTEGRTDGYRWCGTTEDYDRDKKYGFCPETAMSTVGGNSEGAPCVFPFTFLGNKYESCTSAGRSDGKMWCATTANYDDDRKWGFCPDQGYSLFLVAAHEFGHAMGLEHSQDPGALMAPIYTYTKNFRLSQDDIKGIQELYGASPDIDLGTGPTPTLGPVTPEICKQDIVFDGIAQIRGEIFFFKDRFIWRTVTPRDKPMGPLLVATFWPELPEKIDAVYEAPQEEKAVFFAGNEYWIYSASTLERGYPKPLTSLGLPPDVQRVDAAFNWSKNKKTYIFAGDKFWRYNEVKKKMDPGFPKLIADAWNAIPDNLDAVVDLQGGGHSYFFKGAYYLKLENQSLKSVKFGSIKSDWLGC

Cc1ccc(-c2nnn3c2nc(NCCc2ccc(S(N)(=O)=O)cc2)c2ccccc23)cc1
IC50 [1]: 0.819 µM (active)
IC50 [2]: 0.783 µM (active)
IC50 [3]: 17.7 µM (active)
IC50 [4]: > 100 µM (inactive)
IC50 (Prothrombin): 77.4 µM (active)

CCCCC1(CC)C(=O)NC(=O)N=C1Nc1ccc(OC)cc1 (stereo not drawn)
IC50 (Coagulation factor XII [5]): > 50 µM (inactive)

O=C(Nc1ccc2nc(-c3ccco3)c(-c3ccco3)nc2c1)NC1CCCC1
IC50 [6]: 1.1 µM (active)

Cc1ccc(C(=O)n2nnc3ccccc32)cc1
IC50 (Coagulation factor XII [7]): 2.29 µM (active)
